For 75 compounds, logP and logD results are on record in the SangsterLogP compilation.

As a reminder, the logP is the decadic logarithm of the partition coefficient of the neutral form, usually between octanol and water. By logD is commonly meant lipophilicity at a set pH, counting ionised and neutral species. Read a high logD as higher lipophilicity.

Experiment in the first data set: not given
Settings: not given
Turning to `CC(C)C12CCC(C)(CC1)C1C(=O)N(CCCCN3CCN(c4ccc5ccccc5n4)CC3)C(=O)C12` (stereo not given), the logP turned out to be 6.59. Still for that read-out and setting: under `O=C1C2C3CCC(C3)C2C(=O)N1CCCCN1CCN(c2ccc3ccccc3n2)CC1` (stereo not given) stands 3.64; under `CC(C)C12C=CC(C)(CC1)C1C(=O)N(CCCCN3CCN(c4ccc5ccccc5n4)CC3)C(=O)C12` (stereo not given), 6.3. As to `O=C1C2C3C=CC(CC3)C2C(=O)N1CCCCN1CCN(c2ccc3ccccc3n2)CC1` (stereo not given), the logP was 3.83.

Experiment in the next data set: not given
Settings: not given
The source holds these as a separate data set.
For the compound `Cc1c(O)cc(C(=O)Cc2ccccc2)oc1=O`, the logP is 0.78.

Compound `O=c1cc(O)cco1` came in with a logP of 0.5. In turn, `O=C(Cc1cc(O)cc(=O)o1)c1ccccc1` had a logP of 0.43.

Experiment in a further data set: not given
Settings: not given
This is another data set of the same source.
`O=c1oc2ccccc2c(O)c1Cc1c(O)c2ccccc2oc1=O` displayed a logP of 1.83. Compound `CCCC(c1c(O)c2ccccc2oc1=O)c1c(O)c2ccccc2oc1=O` yielded a logP of 2.31. Compound `CC(c1c(O)c2ccccc2oc1=O)c1c(O)c2ccccc2oc1=O` displayed a logP of 0.43. Compound `CCCCC(c1c(O)c2ccccc2oc1=O)c1c(O)c2ccccc2oc1=O` registered a logP of 2.69.

Experiment in a further data set: not given
Settings: not given
The source holds these as a separate data set.
On to `O=C1c2c(O)cccc2C(C(=O)Cc2cccc3ccccc23)c2cccc(O)c21`, for which the logP turned out to be 4.61. Same read-out and setting: under `O=C1c2c(O)cccc2C(C(=O)CC2CCCCC2)c2cccc(O)c21` stands 4.97; under `O=C1c2c(O)cccc2C(C(=O)Cc2ccc3ccccc3c2)c2cccc(O)c21`, 4.71; under `O=C1c2c(O)cccc2C(C(=O)C(c2ccccc2)c2ccccc2)c2cccc(O)c21`, 4.6.

A short description of another data set: method code SF-NMR, from DOI: 10.1002/jps.2600751016, PMID: 3795031.
Settings: not given
Regarding `CC(CO)CC(F)(F)F` (stereo not given), the logP was found to be 1.39. In the case of `CCC(O)CCC(F)(F)F` (stereo not given), the logP was found to be 1.7. `CC(CCO)C(F)(F)F` (stereo not given) registered a logP of 1.37.

The next data set is described as follows: method code SF-HPLC, from DOI: 10.1016/0378-5173(85)90011-0.
Settings: not given
Regarding `CCC(=O)n1ncc2c(=O)[nH]cnc21`, the logP was 0.3. `CC(=O)n1ncc2c(=O)[nH]cnc21`: the logP was -0.35.

The data set is the same for the next values; noted with them: pH 7.4.
Take `O=c1[nH]cnc2[nH]ncc12`: the logD was -0.55.

Experiment in the next data set: not given
Settings: not given
This is another data set of the same source.
The compound `Cc1cc(C(=O)N2Cc3ccc(C(=O)N(CCO)CCO)n3Cc3ccccc32)ccc1-c1cc(F)ccc1C(F)(F)F` showed a logP of 3.31. Still for that read-out and setting: in the case of `Cc1cc(C(=O)N2Cc3ccc(C(=O)NCCF)n3Cc3ccccc32)ccc1-c1ccccc1C(F)(F)F` it was 4.18. Turning to `Cc1cc(C(=O)N2Cc3ccc(C(=O)N4CCOCC4)n3Cc3ccccc32)ccc1-c1ccccc1CCF`, the logP was 4.08.

`Cc1cc(C(=O)N2Cc3ccc(C(=O)N(CCO)CCO)n3Cc3ccccc32)ccc1-c1ccccc1C(F)(F)F`: the logP was determined as 3.21.

Experiment in another data set: not given
Settings: not given
The source holds these as a separate data set.
Take `Cc1cccc2c1OP(=O)(OCC1OC(n3cc(C=CBr)c(=O)[nH]c3=O)CC1OC(=O)C(C)(C)C)OC2` (stereo not given): the log partition coefficient (logP) stood at 3.

`CCCCCCCCCC(=O)OC1CC(n2cc(C=CBr)c(=O)[nH]c2=O)OC1COP1(=O)OCc2cccc(C)c2O1` (stereo not given) displayed a logP of 2.8.

In the case of `CCC(=O)OC1CC(n2cc(C=CBr)c(=O)[nH]c2=O)OC1COP1(=O)OCc2cccc(C)c2O1` (stereo not given), the logP was determined as 2.3. Regarding `CCCCCC(=O)OC1CC(n2cc(C=CBr)c(=O)[nH]c2=O)OC1COP1(=O)OCc2cccc(C)c2O1` (stereo not given), the logP stood at 2.6.

A further data set is described as follows: method code SF-HPLC, from DOI: 10.1016/0378-5173(92)90116-j. To be noted: pH 7.4.
On to `CCC(C(=O)OCc1ccc(COC(=O)C(CC)C(CO)Cc2cncn2C)cc1)C(CO)Cc1cncn1C` (stereo not given), for which the logD was determined as 2.18.

`CCC(C(=O)OCCCCCCCOC(=O)C(CC)C(CO)Cc1cncn1C)C(CO)Cc1cncn1C` (stereo not given) showed a logD of 2.67. On to `CCC(C(=O)OCCCCCOC(=O)C(CC)C(CO)Cc1cncn1C)C(CO)Cc1cncn1C` (stereo not given), for which the logD amounted to 1.57. For `CCC(C(=O)OCc1ccccc1COC(=O)C(CC)C(CO)Cc1cncn1C)C(CO)Cc1cncn1C` (stereo not given), the logD worked out at 2.03.

Experiment in the next data set: not given
Settings: not given
The source holds these as a separate data set.
Take `CC1=C(C(=O)OC(C)C)C(c2cccc([N+](=O)[O-])c2)C(C(=O)OC2CN(C(c3ccccc3)c3ccccc3)C2)=C(N)N1` (stereo not given): the log partition coefficient (logP) was found to be 5.18. On the same count and under the same terms, under `COC(=O)C1=C(C)NC(C)=C(C(=O)OC/C=C/c2ccccc2)C1c1cccc([N+](=O)[O-])c1` (stereo not given) stands 4.26; under `CCOC(=O)C1=C(C)NC(C)=C(C(=O)OC)C1c1cccc([N+](=O)[O-])c1` (stereo not given), 2.88.

Experiment in another data set: not given
Settings: not given
This is another data set of the same source.
As for `O=C(O)c1[nH]c2cc(Cl)cc(Cl)c2c1CN1CC(=O)N(c2ccc(OCCF)c(Cl)c2)C1=O`, the logP turned out to be 2.53.

`COc1ccc(N2C(=O)CN(Cc3c(C(=O)O)[nH]c4cc(Cl)cc(Cl)c34)C2=O)cc1`: the logP is 2.26. For `O=C(O)c1[nH]c2cc(Cl)cc(Cl)c2c1CN1CC(=O)N(c2ccc(OCCF)cc2)C1=O`, the logP is 2.07. With `O=C(O)c1[nH]c2cc(Cl)cc(Cl)c2c1CN1CC(=O)N(c2ccccc2OCCF)C1=O`, the logP is 1.51.

The next data set can be described thus: method code SF-AS, from DOI: 10.1248/cpb.26.2832.
Settings: not given
In the case of `CC(=O)OCC(=O)[C@@]1(O)CC[C@H]2[C@@H]3CCC4=CC(=O)CC[C@]4(C)[C@H]3C(=O)C[C@@]21C`, the logP stood at 2.1.

Compound `CCCCC(=O)OC1(C(=O)CO)C(C)CC2C3CCC4=CC(=O)C=CC4(C)C3(F)C(O)CC21C` (stereo not given) yielded a logP of 3.49. The compound `CC(=O)OCC(=O)[C@@]1(O)[C@H](OC(C)=O)C[C@H]2[C@@H]3CCC4=CC(=O)C=C[C@]4(C)[C@@]3(F)[C@@H](O)C[C@@]21C` showed a logP of 1.92. On to `CC(=O)OCC(=O)[C@@]1(O)CC[C@H]2[C@@H]3CCC4=CC(=O)C=C[C@]4(C)[C@H]3[C@@H](O)C[C@@]21C`, for which the log partition coefficient (logP) turned out to be 2.4.

Another data set can be described thus: method code SF-AS, from DOI: 10.1002/jps.2600690614, PMID: 7205578.
Settings: not given
`CCN1CCN(CC)C1=S` had a logP of 1.13. Turning to `S=C1NCCCN1`, the logP was -0.68.

`CN(C)CCN(Cc1cccs1)c1ccccn1` displayed a logP of 2.87.

The next data set is described as follows: method code SF-AS, from PMID: 5136171.
Settings: not given
In turn, `CCOC(=O)c1cnc2cc(OCCOC)c(OC(C)C)cc2c1O` came in with a logP of 1.86.

In turn, `CCCOc1cc2c(O)c(C(=O)OCC)cnc2cc1OCCOC` yielded a logP of 1.7. Still for that read-out and setting: under `CCCCOc1cc2c(O)c(C(=O)OCC)cnc2cc1OCCOC` stands 1.72. Still for that read-out and setting: under `CCOC(=O)c1cnc2cc(OCCOC)c(OCC(C)C)cc2c1O` stands 1.84.

A short description of the next data set: method code SF-GLC, from DOI: 10.1021/jm00240a002, PMID: 1151965.
Settings: not given
As to `FC(F)(F)C(F)(F)F`, the logP was determined as 2.

For `FC(F)(F)C(Cl)Br` (stereo not given), the logP worked out at 2.3. Same read-out and setting: under `COC(F)(F)C(Cl)Cl` stands 2.21.

Experiment in the next data set: not given
Settings: not given
The source holds these as a separate data set.
Compound `CCOC(=O)COc1cccc2ccccc12` gave a logP of 2.9. Same read-out and setting: under `CS(=O)(=O)c1ccc(OCC(=O)O)cc1` stands 0.06. As for `Nc1nc[nH]n1`, the logP is -0.87.

A short description of the next data set: method code SF-GLC, from DOI: 10.1016/s0022-3565(25)30310-1, PMID: 1181405. To be noted: pH 7.4.
As for `CNC(=O)Oc1cc(C)c(C)c(C)c1`, the logD stood at 2.66. `CNC(=O)OC`: the logD was -0.06. `CCCOC(=O)NC` registered a logD of 0.95.

Experiment in another data set: not given
Settings: not given
This is another data set of the same source.
`CCCCCCCCCCCCOC(=O)N(C)SN(C)C(=O)Oc1ccc2c(c1)OCO2` had a logP of 7.39. As for `CC(C)Oc1ccccc1OC(=O)N(C)SN(C)C(=O)Oc1ccc2c(c1)OCO2`, the logP was found to be 2.7. `CCCCCCCCCCCCCCCCOC(=O)N(C)SN(C)C(=O)Oc1ccc2c(c1)OCO2` came in with a logP of 10.5.

For `CCCCCCCCOC(=O)N(C)SN(C)C(=O)Oc1ccc2c(c1)OCO2`, the log partition coefficient (logP) is 4.67.

The nature of a further data set: method code SF, from DOI: 10.1016/0360-3016(92)90876-j, PMID: 1735696. To be noted: pH 7.4.
In the case of `O=[N+]([O-])c1nccn1CC=NO`, the pH-dependent lipophilicity (logD) is -0.43. `O=C(Cn1ccnc1[N+](=O)[O-])NCCO`: the log distribution coefficient (logD) was -1.32. Still for that read-out and setting: under `CC(=O)O/N=C/Cn1ccnc1[N+](=O)[O-]` stands -0.47.

Experiment in the next data set: not given
Settings: not given
The source holds these as a separate data set.
`CC(=O)OC(C(=O)NC12CC3CC(CC(C3)C1)C2)c1ccccc1` (stereo not given) gave a logP of 3.21. Compound `CC(=O)OC(C(=O)ON=C1C2CC3CC(C2)CC1C3)c1ccccc1` (stereo not given) returned a logP of 3.28. On the same count and under the same terms, in the case of `CCC(=O)OC(C(=O)NC12CC3CC(CC(C3)C1)C2)c1ccccc1` (stereo not given) it was 3.72; in that of `CC(=O)C(C(=O)ON=C(C)C12CC3CC(CC(C3)C1)C2)c1ccccc1` (stereo not given), 4.64.

Experiment in another data set: not given
Settings: not given
This is another data set of the same source.
In turn, `COc1ccc(CNC(=O)c2cc(-c3cncc(Cl)c3)cnc2-c2ccccn2)nc1OC` gave a logP of 3.2. Still for that read-out and setting: under `COc1ccccc1C(=O)N1CCCN(c2nc3ccc(Cl)cc3s2)CC1` stands 4.98; under `COc1nc(C)ncc1OCC1(c2cccc(F)c2)CC1C(=O)Nc1ccc(F)cn1` (stereo not given), 3.65. Still for that read-out and setting: under `Cn1c(CCC(=O)N2CCC[C@H]2C(=O)Nc2ccccc2-c2ccccc2)nc2ccccc21` stands 3.79.
